Experimental data as given in patent publication US20050255493A1, “Molecular targeting of the IGF-1 receptor” (priority 2002, published 2005).

What was measured:
IGF1R mRNA = test: Oligonucleotide scanning array hybridisation with labelled transcript; type: binding, human; settings: scanning array, peak 4 region (FIG. 11B)
Method: Scanning arrays complementary to the region of the IGF1R mRNA from position 537-685 were prepared using the standard techniques described in Southern E. M. et al., Nucleic Acids Res., 1994, 22(8): 1368-1373; and Sohail, M. and Southern, E. M. “Using oligonucleotide scanning arrays to find effective antisense reagents”, Methods in Molecular Biology, vol. 170: DNA Arrays: Methods and Protocols, Ed J. B. Rampal, Humana Press Inc., Totowa, N.J.
The scanning arrays comprise sets of oligonucleotides of various lengths. A series of oligonucleotides, complementary to the target mRNA, is made by sequential coupling of nucleotides to a solid surface. The DNA synthesis reagents are applied to a confined area on the surface of the solid support using a mask. The mask is shifted along the surface after each round of coupling, resulting in a series of oligonucleotides each complementary to a region of the target sequence.
• 2. Remove 1 μL for quantitation (see below). • 3. Remove unincorporated label by Sephadex® G25 column chromatography (see Note 11). • 4. Save 1 μL of the purified transcript for quantitation (see below). • 5. Check the integrity of the transcript by denaturing polyacrylamide gel electrophoresis (10). • 6. Add 10 μL of the scintillation fluid to the samples saved in Steps 2 and 4. • 7. Mix by vortexing and count the samples in a scintillation counter for 1 min. • 8. Calculate the percent incorporation: [formula] • 9. Calculate the amount of RNA made: [formula] Hybridisation to Arrays Made on Polypropylene • 1. Place the array in the hybridisation tube, coiling it in a spiral. • 2. Dilute the radiolabelled transcript in an appropriate volume (10-20 mL depending upon the size of the array and the hybridisation tube) of hybridisation buffer. The mix should cover the array along the length of the tube. • 3. Place items 1 and 2 in the oven at desired temperature for 30 min. Also put approximately 100 mL of the hybridisation buffer in the oven: this is to be used to wash the array at the end of hybridisation. • 4. Pour the hybridisation mix into the tube containing the array and hybridise for 3-4 h. • 5. Remove the hybridisation mix. Briefly wash the array with the hybridisation buffer from Step 3, air dry, cover with cling film and expose to a storage phosphor screen for 16-20 h (see Note 12). • 6. Scan the screen on PhosphorImager or STORM and analyse the image using xvseq (see below). Hybridisation to Arrays Made on Glass • 1. Clean the non-array glass plate with acetone and ethanol to ensure it is grease-free and siliconise it by treatment with dimethyl dichlorosilane solution and place it in lidded box. Also place moist paper towel in the box. • 2. Dilute the radiolabelled transcript in an appropriate volume of the hybridisation buffer (for example, for an array of 250 mm×50 mm use 500-750 μL). • 3. Place items 1 and 2 in an incubator at desired temprature for 30 min. Also put approximately 100 mL of the hybridisation buffer in the oven: this is to be used to wash the array at the end of hybridisation. • 4. Using a micropipette, pipette the hybridisation mix in a line evenly along the length of the non-array glass plate, avoiding formation of air bubbles. • 5. Starting at one end, carefully place the scanning array (face down) on top of the hybridisation mix. The mix will spread out and form a thin film between the two plates. Incubate for 3-4 h. • 6. Separate the plates from each other and wash the array plate with hybridisation buffer to remove unbound mix. Drain the plate, air dry, cover with cling film and expose to a storage phosphor screen for 16-20 h. • 7. Scan the screen on PhosphorImager or STORM and analyse the image using xvseq (see below). Alternative Hybridisation Protocol for Glass or Polypropylene • 1. Assemble with clips the array plate (or polypropylene array pasted with PhotoMount™ on a glass plate) and the non-array plate, using rubber tubing as spacers on two sides. • 2. […]

MDA-MB-231 cells [1] = test: Clonogenic survival and post-irradiation survival (SF2) of transfected MDA-MB-231 cells; type: cell-based, human; settings: MDA-MB-231, 100 nM
Method: FIG. 7 A) MDA-MB-231 cells transfected with 100 nM RNA duplexes were serum-starved overnight and treated with 50 nM IGF-I for 30 min. […] Results represent mean±sem of colony counts in triplicate dishes. Similar results were obtained in two further clonogenic assays. • C) Clonogenic survival of transfected MDA-MB-231 cells that were unirradiated or irradiated at 2Gy. The fraction surviving 2Gy irradiation (SF2) is shown as mean±sem of three independent assays.
The effect of transfection with 100 nM ASO4 or siRNA duplexes R4 and R5, equivalent to strongly and weakly hybridizing ASOs respectively, on colony forming efficiency and post-irradiation survival was also evaluated. […] This in turn illustrates the utility of hybridisation to the scanning ASO array in the selection of siRNA reagents, since relative hybridisation to the array is found to be predictive of activity in RNA interference and biological efficacy.

[2] = test system: UC101 human ovarian cancer cells; test: Tumorigenicity of UC101 ovarian cancer cells transfected with siRNA (xenografts); type: in vivo, female athymic (nu/nu mice); settings: nu/nu mice
Method: UC101 ovarian cancer cells were transfected with 200 nM siRNA, mixed with irradiated NIH-3T3 cells and inoculated into the flanks of female athymic (nu/nu mice).
Tumorigenicity testing was conducted using UC101 human ovarian cancer cells transfected with 200 nM siRNA. After 48 hr the cells were inoculated into the flanks of female athymic (nu/nu mice), using 5×10^6 tumour cells mixed with 5×10^6 irradiated NIH-3T3 cells per mouse. Tumours were measured and volumes calculated as described (Macaulay et al., Oncogene 20: 2029-40, 2001). All procedures were performed in accordance with the Home Office Scientific Procedures Act 1986, and with the approval of the Animal Ethics Committee of Cancer Research UK.

MDA-MB-231 cells [3] = test: Chemosensitisation of MDA-MB-231 cells to etoposide (clonogenic assay); type: cell-based, human; settings: 200 nM
Method: FIG. 14 illustrates chemosensitisation of MDA-MB-231 cells to etoposide. MDA-MB-231 cells were transfected with 200 nM siRNA R4 or scrambled control duplex, re-seeded the following day at 2000 cells/6 cm dish, and the following day treated overnight with etoposide at the indicated concentrations. Thereafter the drug was washed off, dishes were incubated for 1 week at 37° C., and visible colonies were stained and counted.

DU145 cells = test: Etoposide-induced apoptosis in DU145 cells (caspase 3/7 activation, annexin V staining); type: cell-based, human; settings: 200 nM, annexin staining and caspase 3/7 activation
Method: FIG. 13 illustrates the effect of siRNA R4 on apoptosis in prostate cancer cells. DU145 cells were transfected with 200 nM R4 or scrambled control, and after 48 hr were treated with etoposide or vehicle without drug. After overnight incubation at 37° C. the incidence of apoptosis was measured by caspase 3/7 activation assay (Promega; left panel), or by flow cytometry after staining with annexin V and propodium iodide (right panel).

[4] = UC101 cells transfected with 200 nM siRNA

R4: RNAi duplex CAAUGAGUACAACUACCGCTT / TTGUUACUCAUGUUGAUGGCG, SEQ ID NO:30 (CAAUGAGUACAACUACCGCNN; second strand not cited, chemistry not fully specified)
Difference in hybridization intensity between the 19mer ASOs equivalent to R4 and R5 (IGF1R mRNA): ~6.5 fold
Survival after 2Gy irradiation (SF2) (MDA-MB-231 cells [1]; 2Gy): significant inhibition of survival after 2Gy irradiation
Clonogenic survival (MDA-MB-231 cells [1]; unirradiated): inhibited survival
Duration of tumour growth delay (remaining two animals) [2, 4]: ~18 days
Time remaining tumour-free (two of 4 mice) [2, 4]: > 60 days
Animals in which tumour formation was abolished ([2]; single transfection, 200 nM siRNA, UC101 cells): 2/4
Sensitivity to etoposide by clonogenic assay (MDA-MB-231 cells [3]): significantly enhanced
Etoposide-induced apoptosis (DU145 cells): enhanced etoposide-induced apoptosis
